Tested on: CD8+ T cells
Assay: In vitro immunogenicity: in vitro T-cell priming with aAPCs loaded with peptide/MHC complexes and anti-CD28, pMHC multimer readout
Assay type: cell-based, human
Conditions: HLA-A*02 restricted peptides; percentage of positive wells among evaluable
Description: In order to obtain information regarding the immunogenicity of the TUMAPs of the present invention, the inventors performed investigations using an in vitro T-cell priming assay based on repeated stimulations of CD8+ T cells with artificial antigen presenting cells (aAPCs) loaded with peptide/MHC complexes and anti-CD28 antibody.
In order to perform in vitro stimulations by artificial antigen presenting cells loaded with peptide-MHC complex (pMHC) and anti-CD28 antibody, the inventors first isolated CD8+ T cells from fresh HLA-A*02 leukapheresis products via positive selection using CD8 microbeads (Miltenyi Biotec, Bergisch-Gladbach, Germany) of healthy donors obtained from the University clinics Mannheim, Germany, after informed consent. PBMCs and isolated CD8+ lymphocytes were incubated in T-cell medium (TCM) until use consisting of RPMI-Glutamax (Invitrogen, Karlsruhe, Germany) supplemented with 10% heat inactivated human AB serum (PAN-Biotech, Aidenbach, Germany), 100 U/ml Penicillin/100 μg/ml Streptomycin (Cambrex, Cologne, Germany), 1 mM sodium pyruvate (CC Pro, Oberdorla, Germany), 20 μg/ml Gentamycin (Cambrex). 2.5 ng/ml IL-7 (PromoCell, Heidelberg, Germany) and 10 U/ml IL-2 (Novartis Pharma, Nürnberg, Germany) were also added to the TCM at this step. Generation of pMHC/anti-CD28 coated beads, T-cell stimulations and readout was performed in a highly defined in vitro system using four different pMHC molecules per stimulation condition and 8 different pMHC molecules per readout condition.
The purified co-stimulatory mouse IgG2a anti human CD28 Ab 9.3 (Jung et al., 1987) was chemically biotinylated using Sulfo-N-hydroxysuccinimidobiotin as recommended by the manufacturer (Perbio, Bonn, Germany). Beads used were 5.6 μm diameter streptavidin coated polystyrene particles (Bangs Laboratories, Illinois, USA).
pMHC used for positive and negative control stimulations were A*0201/MLA-001 (peptide […] (SEQ ID NO. 289) from modified Melan-A/MART-1) and A*0201/DDX5-001 ([…] from DDX5, SEQ ID NO. 290), respectively.
800.000 beads/200 μl were coated in 96-well plates in the presence of 4×12.5 ng different biotin-pMHC, washed and 600 ng biotin anti-CD28 were added subsequently in a volume of 200 μl. Stimulations were initiated in 96-well plates by co-incubating […] CD8+ T cells with 2×10^5 washed coated beads in 200 μl TCM supplemented with 5 ng/ml IL-12 (PromoCell) for 3 days at 37° C. Half of the medium was then exchanged by fresh TCM supplemented with 80 U/ml IL-2 and incubating was continued for 4 days at 37° C. This stimulation cycle was performed for a total of three times. For the pMHC multimer readout using 8 different pMHC molecules per condition, a two-dimensional combinatorial coding approach was used as previously described (Andersen et al., 2012) with minor modifications encompassing coupling to 5 different fluorochromes. Finally, multimeric analyses were performed by staining the cells with Live/dead near IR dye (Invitrogen, Karlsruhe, Germany), CD8-FITC antibody clone SK1 (BD, Heidelberg, Germany) and fluorescent pMHC multimers. For analysis, a BD LSRII SORP cytometer equipped with appropriate lasers and filters was used. Peptide specific cells were calculated as percentage of total CD8+ cells. Evaluation of multimeric analysis was done using the FlowJo software (Tree Star, Oreg., USA). In vitro priming of specific multimer+CD8+ lymphocytes was detected by comparing to negative control stimulations.
Exemplary flow cytometry results after TUMAP-specific multimer staining for 15 peptides of the invention are shown in FIGS. 3 and 6 together with corresponding negative controls.

Substance	Wells positive [%]
255 (FLMKNSDLYGA; listed as Homo sapiens) [compound 255]	+ (<20% = +)
66 (AMFPDTIPRV; listed as Homo sapiens) [compound 66]	+ (<20% = +)
34 (TLNTLDINL; listed as Homo sapiens) [compound 34]	++++ (>=70% = ++++)
9 (SLITGQDLLSV; listed as Homo sapiens) [compound 9]	+ (<20% = +)
246 (ALAGIVTNV; listed as Homo sapiens) [compound 246]	+ (<20% = +)
14 (YTFSGDVQL; listed as Homo sapiens) [compound 14]	+ (<20% = +)
264 (TLHDQVHLL; listed as Homo sapiens) [compound 264]	+ (<20% = +)
17 (GLLPSAESIKL; listed as Homo sapiens) [compound 17]	+ (<20% = +)
29 (KMISAIPTL; listed as Homo sapiens) [compound 29]	+ (<20% = +)
77 (ALYGNVQQV; listed as Homo sapiens) [compound 77]	+ (<20% = +)
260 (ALNESLVEC; listed as Homo sapiens) [compound 260]	+ (<20% = +)
242 (KLQEEIPVL; listed as Homo sapiens) [compound 242]	+ (<20% = +)
89 (SLAETIFIV; listed as Homo sapiens) [compound 89]	+ (<20% = +)
102 (GLYPVTLVGV; listed as Homo sapiens) [compound 102]	+ (<20% = +)
267 (YLLDMPLWYL; listed as Homo sapiens) [compound 267]	+ (<20% = +)
236 (KMSELQTYV; listed as Homo sapiens) [compound 236]	+ (<20% = +)
27 (GLLGKVTSV; listed as Homo sapiens) [compound 27]	+ (<20% = +)
254 (ALGDKFLLRV; listed as Homo sapiens) [compound 254]	+ (<20% = +)
35 (VIIKGLEEI; listed as Homo sapiens) [compound 35]	+ (<20% = +)
39 (YLEDGFAYV; listed as Homo sapiens) [compound 39]	++++ (>=70% = ++++)
233 (SLFESLEYL; listed as Homo sapiens) [compound 233]	+ (<20% = +)
257 (KLIDHQGLYL; listed as Homo sapiens) [compound 257]	+ (<20% = +)
50 (ILLSVLHQL; listed as Homo sapiens) [compound 50]	+ (<20% = +)
263 (SIIEYLPTL; listed as Homo sapiens) [compound 263]	+ (<20% = +)
97 (KLFEKSTGL; listed as Homo sapiens) [compound 97]	+ (<20% = +)
4 (VLFGELPAL; listed as Homo sapiens) [compound 4]	+ (<20% = +)
157 (ILQDGQFLV; listed as Homo sapiens) [compound 157]	+ (<20% = +)
101 (SLLEVNEASSV; listed as Homo sapiens) [compound 101]	+ (<20% = +)
121 (ALYVQAPTV; listed as Homo sapiens) [compound 121]	+ (<20% = +)

Same assay, conditions: percentage of positive donors; CD8+ T cells of healthy HLA-A*02 donors, three stimulation cycles, multimer staining

Substance	donors
288 (SLYKGLLSV; listed as Homo sapiens) [compound 288]	++++ (>= 70% = ++++)
287 (KIQEILTQV; listed as Homo sapiens) [compound 287]	+++ (50%-69%- +++)

Same assay, conditions: percentage of positive wells; CD8+ T cells of healthy HLA-A*02 donors, three stimulation cycles, multimer staining

Substance	wells
287 (KIQEILTQV; listed as Homo sapiens) [compound 287]	+ (<20% = +)

Target: HLA-A*02:01 (Homo sapiens, UniProt P04439, D140Y/D185E/D98H/E176V/E277Q/G131W/G231S/I119V/I121R/I166T/I218V/L300P/L318F/N151K/N90K/P208A/P217A/Q86G/Q94H/R138H/R169H/T345S)
Assay: MHC binding assay: UV-ligand exchange, ELISA on beta2m of stabilized MHC complexes (peptide exchange yield)
Conditions: binding to HLA-A*02:01, UV-ligand exchange, β2m ELISA
Description: Candidate peptides for T cell based therapies according to the present invention were further tested for their MHC binding capacity (affinity). The individual peptide-MHC complexes were produced by UV-ligand exchange, where a UV-sensitive peptide is cleaved upon UV-irradiation, and exchanged with the peptide of interest as analyzed. Only peptide candidates that can effectively bind and stabilize the peptide-receptive MHC molecules prevent dissociation of the MHC complexes. To determine the yield of the exchange reaction, an ELISA was performed based on the detection of the light chain (β2m) of stabilized MHC complexes. The assay was performed as generally described in Rodenko et al. (Rodenko et al., 2006).
96 well MAXISorp plates (NUNC) were coated over night with 2 ug/ml streptavidin in PBS at room temperature, washed 4× and blocked for 1 h at 37° C. in 2% BSA containing blocking buffer. Refolded HLA-A*02:01/MLA-001 monomers served as standards, covering the range of 15-500 ng/ml. Peptide-MHC monomers of the UV-exchange reaction were diluted 100 fold in blocking buffer. Samples were incubated for 1 h at 37° C., washed four times, incubated with 2 ug/ml HRP conjugated anti-β2m for 1 h at 37° C., washed again and detected with TMB solution that is stopped with […]. Absorption was measured at 450 nm. Candidate peptides that show a high exchange yield (preferably higher than 50%, most preferred higher than 75%) are generally preferred for a generation and production of antibodies or fragments thereof, and/or T cell receptors or fragments thereof, as they show sufficient avidity to the MHC molecules and prevent dissociation of the MHC complexes.

Substance	Peptide exchange (MHC class I binding score, peptide exchange yield)
269 (GLLDCPIFL; listed as Homo sapiens) [compound 269]	++++ (>75% = ++++)
17 (GLLPSAESIKL; listed as Homo sapiens) [compound 17]	++++ (>75% = ++++)
161 (NLLDENVCL; listed as Homo sapiens) [compound 161]	++++ (>75% = ++++)
92 (RLFEEVLGV; listed as Homo sapiens) [compound 92]	++++ (>75% = ++++)
6 (FLNAIETAL; listed as Homo sapiens) [compound 6]	++++ (>75% = ++++)
84 (FLLEREQLL; listed as Homo sapiens) [compound 84]	++++ (>75% = ++++)
178 (SLVSWQLLL; listed as Homo sapiens) [compound 178]	++++ (>75% = ++++)
206 (GLDAFRIFL; listed as Homo sapiens) [compound 206]	++++ (>75% = ++++)
1 (KLQEKIQEL; listed as Homo sapiens) [compound 1]	++++ (>75% = ++++)
234 (VLLNEILEQV; listed as Homo sapiens) [compound 234]	++++ (>75% = ++++)
